Reference: ChEMBL document CHEMBL1201862, “PubChem BioAssay data set” (2004)
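96-well plates; 48 h exposure; 5 concentrations. Endpoints by linear interpolation between flanking doses. Not reached: highest tested concentration assigned. GI50 is the concentration that inhibits growth by half.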 The source made the active and inactive calls. Rule as the data show it: active = GI50 up to about 1.1 µM and inactive = higher.

What was measured:
Assay in all cases: inhibition of tumour cell growth, NCI panel, 48 h
[1] = tested on: A498
[2] = tested on: TK-10
[3] = tested on: HOP-92
[4] = tested on: T47D
[5] = tested on: COLO 205
[6] = tested on: A549
[7] = tested on: IGROV-1
[8] = tested on: MDA-N
[9] = tested on: DU-145
[10] = tested on: MOLT-4
[11] = tested on: Hs-578T
[12] = tested on: NCI/ADR-RES
[13] = tested on: M14
[14] = tested on: HT-29
[15] = tested on: HOP-62
[16] = tested on: HCT-116
[17] = tested on: MDA-MB-231
[18] = tested on: EKVX
[19] = tested on: SF-268
[20] = tested on: MDA-MB-435
[21] = tested on: NCI-H460
[22] = tested on: SR
[23] = tested on: MCF7
[24] = tested on: SK-MEL-5
[25] = tested on: SK-MEL-28
[26] = tested on: SK-MEL-2
[27] = tested on: UACC-257
[28] = tested on: RXF 393
[29] = tested on: SF-295
[30] = tested on: Malme-3M
[31] = tested on: SW-620
[32] = tested on: NCI-H226
[33] = tested on: BT-549
[34] = tested on: SK-OV-3
[35] = tested on: CCRF-CEM
[36] = tested on: OVCAR-5
[37] = tested on: SN12C
[38] = tested on: SNB-75
[39] = tested on: SF-539
[40] = tested on: NCI-H522
[41] = tested on: HCC 2998
[42] = tested on: UACC-62
[43] = tested on: OVCAR-8
[44] = tested on: CAKI-1
[45] = tested on: K562
[46] = tested on: OVCAR-3
[47] = tested on: ACHN
[48] = tested on: U-251
[49] = tested on: UO-31
[50] = tested on: KM12
[51] = tested on: HL-60
[52] = tested on: 786-0
[53] = tested on: SNB-19
[54] = tested on: PC-3
[55] = tested on: HCT-15

Nc1c(Br)cc(-c2nc3ccccc3s2)cc1Br was tested, and the GI50 [1] was > 100 µM (inactive), the GI50 [2] was 6.85 µM (inactive) and the GI50 [3] was > 100 µM (inactive). For the same compound, the GI50 [4] was > 100 µM (inactive), the GI50 [5] was > 100 µM (inactive) and the GI50 [6] was > 100 µM (inactive). The GI50 [7] was 5.12 µM (inactive), the GI50 [8] was > 100 µM (inactive) and the GI50 [9] was > 100 µM (inactive). The GI50 [10] was > 100 µM (inactive), the GI50 [11] was > 100 µM (inactive) and the GI50 [12] was > 100 µM (inactive). The GI50 [13] was > 100 µM (inactive), the GI50 [14] was > 100 µM (inactive) and the GI50 [15] was > 100 µM (inactive). For the same compound, the GI50 [16] was > 100 µM (inactive), the GI50 [17] was > 100 µM (inactive) and the GI50 [18] was > 100 µM (inactive). For the same compound, the GI50 [19] was > 100 µM (inactive), the GI50 [20] was > 100 µM (inactive) and the GI50 [21] was > 100 µM (inactive). For the same compound, the GI50 [22] was > 100 µM (inactive), the GI50 [23] was 18.9 µM (inactive) and the GI50 [24] was > 100 µM (inactive). For the same compound, the GI50 [25] was > 100 µM (inactive), the GI50 [26] was > 100 µM (inactive) and the GI50 [27] was > 100 µM (inactive). The GI50 [28] was > 100 µM (inactive), the GI50 [29] was > 100 µM (inactive) and the GI50 [30] was > 100 µM (inactive). The GI50 [31] was > 100 µM (inactive), the GI50 [32] was > 100 µM (inactive) and the GI50 [33] was > 100 µM (inactive). For the same compound, the GI50 [34] was > 100 µM (inactive), the GI50 [35] was > 100 µM (inactive) and the GI50 [36] was > 100 µM (inactive). The GI50 [37] was > 100 µM (inactive), the GI50 [38] was > 100 µM (inactive) and the GI50 [39] was > 100 µM (inactive). The GI50 [40] was > 100 µM (inactive), the GI50 [41] was 30.6 µM (inactive) and the GI50 [42] was > 100 µM (inactive). The GI50 [43] was > 100 µM (inactive), the GI50 [44] was > 100 µM (inactive) and the GI50 [45] was > 100 µM (inactive). The GI50 [46] was > 100 µM (inactive), the GI50 [47] was > 100 µM (inactive) and the GI50 [48] was > 100 µM (inactive). The GI50 [49] was > 100 µM (inactive), the GI50 [50] was 75.7 µM (inactive) and the GI50 [51] was > 100 µM (inactive). The GI50 [52] was > 100 µM (inactive), the GI50 [53] was > 100 µM (inactive) and the GI50 [54] was > 100 µM (inactive). For the same compound, the GI50 [55] was > 100 µM.
